Patent US9457084B2, “Use of EP4 receptor antagonists in the treatment of IL-23 mediated diseases” (RAQUALIA PHARMA INC., priority 2010, dated 2016)
Entries after “also recorded” stand apart in the source; their conditions may differ.

Experiments:
mice [1] = conditions: animal models; NPL 19 / NPL 21; cited from earlier work
mice [2] = conditions: cited from earlier work
rat = conditions: cited from earlier work
mouse CD11c (+) cells = test: IL-23 production in CD11c dendritic cells (ELISA); assay type: cell-based; conditions: 10, 100, or 1000 nM; antibody to CD40, 36 hours; supernatant ELISA
Experimental: CD11c dendritic cells (DCs) from the spleens of C57BL/6 mice were purified by auto-magnetic activated cell sorting. The DCs were cultured in a 96-well plate at a density of 6×10^5 cells per well in the presence of 10 microgram/mL antibody to CD40 for 36 hours. Compounds listed in FIG. 1, that is, Compound A (3-[2-(4-{2-ethyl-4,6-dimethyl-1H-imidazo[4,5-c]pyridin-1-yl}phenyl)ethyl]-1-[(4-methylbenzene)sulfonyl]urea) and Compound B (4-[(1S)-1-({[5-chloro-2-(3-fluorophenoxy)pyridin-3-yl]carbonyl}amino)ethyl]benzoic acid) were added at the beginning of incubation at a dose of 10, 100, or 1000 nM. The supernatant collected at the end of culture was measured by ELISA for IL-23.

Balb/c male mice = test: DSS model (DSS-induced colitis); assay type: in vivo, mouse; conditions: 2.5% DSS for 7 days; 3 or 30 mg/kg orally for 7 days; evaluated day 11
Experimental: Eight weeks-old Balb/c male mice were used in the study. Mice were allocated to four groups; normal control group, disease control group receiving vehicle, and two disease groups receiving different dose of Compound B. Colitis was induced by drinking 2.5% DSS (average molecular weight of 5,000) dissolved in water for 7 days. Compound B in 0.5% methyl cellulose solution (at a dose of 3 or 30 mg/kg) was orally administered for 7 days. The mice were sacrificed on day 11 and the colon was harvested for the evaluation. Colon length, colon weight, and histology score were analyzed. Histology score was determined as follows; 0=no signs of damage; 1=moderate inflammation; 2=severe inflammation.

C57BL/6 male mice = test: Allergic contact dermatitis and psoriasis model (picryl chloride, ear swelling); assay type: in vivo, mouse
Experimental: Eight weeks-old C57BL/6 male mice were used in the study. Mice were sensitized with 0.1 mL of 7% picryl chloride-ethanol on shaved abdominal skin on day O, Seven days later, the mice were treated with 0.02 mL of 1% picryl chloride-olive oil on both sides of the ear by painting. Ear thickness was measured using a thickness gage before the treatment, and 24 and 48 hours after the treatment, and the difference of ear thickness was used as a parameter of ear swelling. Compound B suspended in 0.5% methyl cellulose solution (at a dose of 3 or 30 mg/kg) was administered orally either during the entire experimental period (days 0 to 11) or elicitation (E) period (days 8 to 10).

[3] = NPL 26; cited from earlier work
[4] = NPL 27; cited from earlier work

In the case of `CC(C(=O)Nc1cc(C#N)ccc1CCCC(=O)O)c1ccc(F)c2ccccc12` (centres unmarked) [AE3-208], the “effect on MS” value (mice [1]) is listed as “treat MS; also recorded: ameliorate”, the “effect on allergic contact dermatitis” value (mice [2]; animal models, NPL 19) is listed as “ameliorate” and the “efficacy on the development (sensitization) of allergic contact dermatitis” value (mice [2]; prophylactic (sensitization), NPL 25) is listed as “potent inhibitory efficacy”. For the same compound, the “efficacy by therapeutic treatment in allergic contact dermatitis” value (mice [2]; therapeutic treatment, NPL 25) was “failed to show the efficacy” and the “effect on DSS-induced colitis” value (rat) was “aggravated”.

With `CCc1nc2c(C)nc(C)cc2n1-c1ccc(CCNC(=O)NS(=O)(=O)c2ccc(C)cc2)cc1` [Compound A, 3-[2-(4-{2-ethyl-4,6-dimethyl-1H-imidazo[4,5-c]pyridin-1-yl}phenyl)ethyl]-1-[(4-methylbenzene)sulfonyl]urea] the “inhibition of IL-23 production” value (mouse CD11c (+) cells) was “dose-dependent inhibition”, the colitis score (Balb/c male mice) was “Dose-dependent reduction” and the colon weight/length (Balb/c male mice) was “Dose-dependent reduction”. The ear swelling (C57BL/6 male mice; treatment period not stated) was “dose-dependent reduction”.

In the case of `C[C@H](NC(=O)c1cc(Cl)cnc1Oc1cccc(F)c1)c1ccc(C(=O)O)cc1` [Compound B, 4-[(1S)-1-({[5-chloro-2-(3-fluorophenoxy)pyridin-3-yl]carbonyl}amino)ethyl]benzoic acid], the “inhibition of IL-23 production” value (mouse CD11c (+) cells) is reported as “dose-dependent inhibition”, the colitis score (Balb/c male mice) is reported as “restored” and the colon weight/length (Balb/c male mice) is reported as “restored”. The ear swelling (C57BL/6 male mice; 3 or 30 mg/kg orally during elicitation (E) period (days 8 to 10)) was “significantly reduced”, the ear swelling (C57BL/6 male mice; 3 or 30 mg/kg orally during entire experimental period (days 0 to 11)) was “significantly reduced” and the “maximum efficacy on ear swelling compared with prednisolone (Pred)” value (C57BL/6 male mice; mouse, in vivo) was “equal to that of prednisolone”.

With `C[C@H](NC(=O)c1cc(Cl)cnc1COc1cccc(Cl)c1)c1ccc(C(=O)O)cc1` [Compound C, 4-{(1S)-1-[({5-chloro-2-[(3-chlorophenoxy)methyl]pyridin-3-yl}carbonyl)amino]ethyl}benzoic acid] the colitis score (Balb/c male mice) was “Dose-dependent reduction”, the colon weight/length (Balb/c male mice) was “Dose-dependent reduction” and the ear swelling (C57BL/6 male mice; treatment period not stated) was “dose-dependent reduction”.

With `COc1ccc(-c2ccc(OCc3cc(C(=O)NS(=O)(=O)c4ccccc4C)oc3C)cc2)nc1` [Compound D, 4-((4-(5-methoxypyridin-2-yl)phenoxy)methyl)-5-methyl-N-(o-tolylsulfonyl)furan-2-carboxamide] the colitis score (Balb/c male mice) was “Dose-dependent reduction”, the colon weight/length (Balb/c male mice) was “Dose-dependent reduction” and the ear swelling (C57BL/6 male mice; treatment period not stated) was “dose-dependent reduction”.

In the case of `Cc1sc(C)c(C(=O)NC2(c3ccc(C(=O)O)cc3)CC2)c1Cc1ccc(C(F)(F)F)cc1` [Compound E, 4-{1-[({2,5-dimethyl-4-[4-(trifluoromethyl)benzyl]-3-thienyl}carbonyl)amino]cyclopropyl}benzoic acid], the colitis score (Balb/c male mice) is reported as “Dose-dependent reduction”, the colon weight/length (Balb/c male mice) is reported as “Dose-dependent reduction” and the ear swelling (C57BL/6 male mice; treatment period not stated) is reported as “dose-dependent reduction”.

For `COc1ccc2c(c1)c(CC(=O)O)c(C)n2C(=O)c1ccc(Cl)cc1` [indomethacin], the “effect on DSS-induced colitis” value [3] is given as “aggravated” and the “effect on allergic contact dermatitis” value [4] is given as “worse”.
